Assay results taken from PubChem BioAssay AID651579 (Sanford-Burnham Center for Chemical Genomics, 2012).
Active and inactive are the calls of the source. No rule for the calls is given here.

These compounds were tested on C. elegans hsp-16.2 reporter, heat-shock counterscreen (assay: inhibitors of heat-induced hsp-16.2 expression – whole organism, C. elegans, counter-screen for SKN-1 inhibitor project, dose response (AID 651579)).

| SMILES | IC50 |
| --- | --- |
| Brc1ccc(-c2nc(-c3ccccc3)no2)o1 | > 64 µM (inactive) |
| Fc1ccc(-c2csc(Nc3ccccn3)n2)cc1 | > 64 µM (inactive) |
| C(=C\c1nnc(-c2cccs2)o1)/c1ccccc1 | > 64 µM (inactive) |
| O=C(CC(O)(C(F)(F)F)C(F)(F)F)Nc1ccc(Cl)c(Cl)c1 | > 64 µM (inactive) |
| CCCCOc1ccc(C(=O)OC2CC(C)N(C)CC2C)cc1 (centres undefined) | > 64 µM (inactive) |
| O=C(Nc1ccc(OC(F)F)c(Cl)c1)c1ccccn1 | > 64 µM (inactive) |
| N=C1C=CC(=C(c2ccc(N)cc2)c2ccc(N)cc2)C=C1 | > 64 µM (inactive) |
| Cc1oc(-c2ccc(-c3ccccc3)cc2)nc1CN(C)C1CCOC1 (centres undefined) | > 64 µM (inactive) |
| CC(C)(C)N=C1NN=C(c2ccc(Cl)cc2)CS1 | > 64 µM (inactive) |
| Cc1ccc(-c2noc(-c3cccs3)n2)cc1 | > 64 µM (inactive) |
| CC1=NN(c2ccccc2)C(=O)/C1=C\C=C1/N(C)c2ccccc2C1(C)C | > 64 µM (inactive) |
| c1ccc2sc(SCc3ccc(-c4nnco4)cc3)nc2c1 | > 64 µM (inactive) |
| c1ccc(-c2nc3cc4ccccc4cc3[nH]2)nc1 | 5.91 µM |
| COc1ccc(C(=O)Nc2nc(-c3cccs3)cs2)cc1 | > 64 µM (inactive) |
| C(=C\c1nc(-c2ccncc2)no1)/c1ccccc1 | > 64 µM (inactive) |
| CCOc1cc(CNC2CCCC2)cc(Cl)c1OCc1ccc(F)cc1 | > 64 µM (inactive) |
| c1ccc(-c2csc(-c3ccncc3)n2)cc1 | > 64 µM (inactive) |
| Clc1ccsc1-c1ccc2ccccc2n1 | > 64 µM (inactive) |
| COc1cc(CNC(C)(C)CO)cc(Br)c1OCc1ccc(Cl)cc1 | > 64 µM (inactive) |
| O=C(Nc1nc(-c2ccc(Cl)s2)cs1)c1cccs1 | > 64 µM (inactive) |
| O=C(Nc1ccc(SC(F)F)cc1)c1ccccc1F | > 64 µM (inactive) |
| CSc1cccc(NC(=O)c2cccc3cccnc23)c1 | 46.3 µM |
| Clc1ccccc1-c1nnc(-c2ccccc2Cl)o1 | > 64 µM (inactive) |
| O=C(/C=C/Nc1ccc(Br)cc1F)c1ccco1 | > 64 µM (inactive) |
| CC/C(=C\c1ccc(Cl)cc1)c1ccncc1 | > 64 µM (inactive) |
| Fc1ccc(-c2csc(-c3ccncc3)n2)cc1 | > 64 µM (inactive) |

| SMILES | IC50 |
| --- | --- |
| O=[N+]([O-])c1ccc(NCc2ccc(Cl)cc2)nc1 | > 64 µM (inactive) |
| CCOc1cc(CNCCSc2nnnn2C)cc(Br)c1OCc1ccc(F)cc1 | > 64 µM (inactive) |
| Cc1c(N2C(=O)/C(=C\c3ccc(N(C)C)cc3)N(C)C2=S)c(=O)n(-c2ccccc2)n1C | > 64 µM (inactive) |
| O=[N+]([O-])c1ccc(OCc2cnc(Cl)s2)cc1 | 42.3 µM |
| Clc1ccc(-c2nnc(-c3ccccc3)o2)c(Cl)c1 | > 64 µM (inactive) |
| CN(C)C(CNC(=O)CCc1nc2cc(Cl)ccc2n(Cc2ccccc2)c1=O)c1ccccc1 (centres undefined) | > 64 µM (inactive) |
| Fc1ccc(-c2cnc(-c3cccs3)o2)cc1 | > 64 µM (inactive) |
| Clc1ccc(C=Cc2ccccn2)cc1 | > 64 µM (inactive) |
| Cc1ccc(N=C/C(C(=O)C(F)(F)F)=C(\O)c2ccco2)cc1Cl | 37.7 µM |
| O=C(/C=C/c1cccs1)c1ccc(Br)cc1 | > 64 µM (inactive) |
| Clc1ccccc1-c1nc(-c2ccncc2)no1 | > 64 µM (inactive) |
| O=C(c1cccs1)c1ccc(-c2cccs2)s1 | > 64 µM (inactive) |
| Fc1ccc(COc2ccc(-c3nnco3)cc2)c(Cl)c1 | > 64 µM (inactive) |
| Cc1ccc2nc(-c3ccc(NC(=S)NC4CC(C)(C)NC(C)(C)C4)cc3)sc2c1 | > 64 µM (inactive) |
| Cc1ccc(Nc2nc(-c3cccs3)cs2)nc1 | 13.6 µM |
| Clc1ccc(C=Cc2ccccn2)c(Cl)c1 | 22.9 µM |
| CCN(CC)c1ccc(/C=C2\C(=O)c3ccc(C(=O)O)cc3C2=O)cc1 | > 64 µM (inactive) |
| Cc1nc2ccccc2cc1OCc1ccc(F)cc1 | > 64 µM (inactive) |
| Fc1ccc(COc2ccc(-c3nnco3)cc2)cc1 | > 64 µM (inactive) |
| O=C(C=Cc1cccs1)c1ccc(Cl)s1 | > 64 µM (inactive) |
| c1ccc(-c2csc(Nc3ccccn3)n2)cc1 | > 64 µM (inactive) |
| Brc1ccc(CSc2nnc(-c3ccco3)o2)cc1 | > 64 µM (inactive) |
| O=c1cc(-c2ccc(F)cc2)oc2ccccc12 | > 64 µM (inactive) |
| Brc1ccc2nc(N3CCCC3)sc2c1 | > 64 µM (inactive) |
| CCc1nc2c(OCc3ccc(C(F)(F)F)cc3)cccn2c1N(C)C(=O)c1ccncc1 | 49.9 µM |
| Fc1ccc(CSc2ncnc3ccccc23)cc1 | > 64 µM (inactive) |

| SMILES | IC50 |
| --- | --- |
| Fc1ccc(-n2nnc(-c3cccnc3Cl)n2)cc1 | > 64 µM (inactive) |
| COc1cc(CNC2CCCC2)cc(Cl)c1OCc1ccc(F)cc1 | 42.7 µM |
| FCCCOc1ccc(-c2nccc(-c3ccccn3)n2)cc1 | > 64 µM (inactive) |
| CCOc1cc(CNC2CCCC2)cc(Cl)c1OCc1ccccc1 | > 64 µM (inactive) |
| CC(C)c1ccc(C(=O)Nc2ccc(CN3CCOCC3)cc2)cc1 | > 64 µM (inactive) |
| Clc1ccc(OCc2cnc(Cl)s2)cc1 | > 64 µM (inactive) |
| O=[N+]([O-])c1ccc(COc2ccc(CN3CCCC3)cc2)cc1 | > 64 µM (inactive) |
| CSc1ccc(-c2cc(=O)c3ccccc3o2)cc1 | > 64 µM (inactive) |
| O=C(/C=C/c1ccc(Br)cc1)c1ccc(NC2=NCCCS2)cc1 | > 64 µM (inactive) |
| O=C(Nc1ccc(CN2CCOCC2)cc1)c1cc2ccccc2o1 | 4.25 µM |
| O=C(/C=C/Nc1ccc(F)cc1F)c1cccs1 | 21.4 µM |
| Brc1ccc(CSc2nnc(-c3cccnc3)o2)cc1 | 45.4 µM |
| CCc1ccc(-c2nc(-c3ccncc3)no2)cc1 | 33.5 µM |
| O=[N+]([O-])c1ccc2cn(-c3ccccc3)nc2c1 | > 64 µM (inactive) |
| Clc1ccc(-c2nnc(-c3ccco3)o2)cc1 | 2.68 µM |
| Clc1ccc(OCCCc2nc(-c3ccncc3)no2)c(Cl)c1 | > 64 µM (inactive) |
| CCc1ccc(C(=O)Nc2ccc3nc(C)ccc3c2)cc1 | > 64 µM (inactive) |
| O=C(Nc1nc2c(ccc3ccccc32)s1)c1ccco1 | > 64 µM (inactive) |
| Clc1ccc(Cn2nnc(-c3ccccc3)n2)cc1 | > 64 µM (inactive) |
| Brc1ccc2oc(-c3ccn[nH]3)cc2c1 | > 64 µM (inactive) |
| O=C(Nc1nccs1)c1ccc2ccccc2n1 | > 64 µM (inactive) |
| CCOC(=O)c1c(-c2ccc(-c3ccccc3)cc2)csc1NC(=O)CNCCN(C)C | > 64 µM (inactive) |
| CCCn1nc2cc(C(=O)NCc3ccc(OC(F)(F)F)cc3)ccc2c1OCC | > 64 µM (inactive) |
| c1ccc(Nc2nc(-c3cccs3)cs2)nc1 | > 64 µM (inactive) |
| Cc1ccc(CSc2nnc(-c3ccco3)o2)cc1 | 30.6 µM |
| O=C(C=Cc1ccccc1)CC(c1ccccc1)N1CCOCC1 (centres undefined) | > 64 µM (inactive) |

| SMILES | IC50 |
| --- | --- |
| O=C(Nc1nccs1)c1ccc2ccccc2c1 | > 64 µM (inactive) |
| c1ccc(-c2ccc(-n3ccnc3)cc2)cc1 | 48.4 µM |
| O=[N+]([O-])c1ccc2nc(-c3ccccc3)oc2c1 | > 64 µM (inactive) |
| O=C(Nc1ccc(Cl)cn1)c1ccccc1F | > 64 µM (inactive) |
| Clc1ccc(C#Cc2cccnc2)cc1 | 2.57 µM |
| C=CCSc1ncc(-c2ccccc2)cn1 | > 64 µM (inactive) |
| COc1ccc2c(c1)OC/C(=C/c1cccs1)C2=O | > 64 µM (inactive) |
| COc1cc(CNC(C)c2ccccc2)cc(Br)c1OCc1ccc(F)cc1 (centres undefined) | > 64 µM (inactive) |
| CCOc1ccc(-c2nc(-c3cccnc3)no2)cc1 | > 64 µM (inactive) |
| O=C(Nc1nc(-c2ccc(Cl)s2)cs1)c1ccccc1 | 22.6 µM |
| O=C(/C=C/c1ccc(Cl)cc1)Nc1ccc(CN2CCOCC2)cc1 | > 64 µM (inactive) |
| CN(C)CC(O)c1ccc(C=Cc2ccc(Cl)cc2)cc1 (centres undefined) | > 64 µM (inactive) |
| CCN(CC)Cc1ccc(NC(=O)c2sc3cc(Cl)ccc3c2Cl)cc1 | > 64 µM (inactive) |
| Fc1ccc(Cn2nnc(-c3ccc(CN4CCOCC4)cc3)n2)cc1 | 4.88 µM |
| CCN(CC)c1ccc(/C=C2/C(=O)c3ccc(C(=O)O)cc3C2=O)cc1 | > 64 µM (inactive) |
| O=C(Nc1nc(-c2ccc(Cl)s2)cs1)c1ccco1 | > 64 µM (inactive) |
| O=C(NCc1ccncc1)c1ccc(-c2ccc(F)c(F)c2)c2ccoc12 | > 64 µM (inactive) |
| O=C(/C=C/Nc1ccccc1F)c1cccs1 | > 64 µM (inactive) |
| O=C(/C=C/Nc1ccc(F)c(F)c1)c1cccs1 | > 64 µM (inactive) |
| CCOC(=O)Nc1nc(-c2ccc(F)cc2F)cs1 | 47.7 µM |
| Cc1ccccc1-c1noc(-c2cccs2)n1 | > 64 µM (inactive) |
| Cn1c(=O)c2c(-c3ccccc3)n(-c3ccc(N)cc3)cc2n(C)c1=O | 3.62 µM |
| O=C(N=C1N=C2C=CC(Br)=CN2Cc2ccccc21)c1ccc([N+](=O)[O-])cc1[N+](=O)[O-] | > 64 µM (inactive) |
| Clc1ccc2nc(-c3ccc(Br)s3)cn2c1 | 15.9 µM |
| Brc1ccc(-c2nnc(-c3ccco3)o2)cc1 | > 64 µM (inactive) |
| CN1CCN(c2ccc(NC(=O)c3ccc(Oc4ccccc4)cc3)cc2)CC1 | > 64 µM (inactive) |
